Counter-ions that a name gives are not always drawn.
Target: human recombinant PDE4B (Homo sapiens (Human), UniProt Q07343, S133E/S654A/S659A/S661A)
Conditions: read-out: Human PDE4B FL
Experimental: Reactions are incubated for 30 min at 25° C. The addition of 20 μL of 8 mg/mL yitrium silicate SPA beads (PerkinElmer) stops the reaction. The plates are sealed (TopSeal, PerkinElmer) and the beads are allowed to settle for 8 hrs, after which they are read on the Trilux Microbeta overnight.

Sequence of human recombinant PDE4B (Q07343 122-736 S133E/S654A/S659A/S661A): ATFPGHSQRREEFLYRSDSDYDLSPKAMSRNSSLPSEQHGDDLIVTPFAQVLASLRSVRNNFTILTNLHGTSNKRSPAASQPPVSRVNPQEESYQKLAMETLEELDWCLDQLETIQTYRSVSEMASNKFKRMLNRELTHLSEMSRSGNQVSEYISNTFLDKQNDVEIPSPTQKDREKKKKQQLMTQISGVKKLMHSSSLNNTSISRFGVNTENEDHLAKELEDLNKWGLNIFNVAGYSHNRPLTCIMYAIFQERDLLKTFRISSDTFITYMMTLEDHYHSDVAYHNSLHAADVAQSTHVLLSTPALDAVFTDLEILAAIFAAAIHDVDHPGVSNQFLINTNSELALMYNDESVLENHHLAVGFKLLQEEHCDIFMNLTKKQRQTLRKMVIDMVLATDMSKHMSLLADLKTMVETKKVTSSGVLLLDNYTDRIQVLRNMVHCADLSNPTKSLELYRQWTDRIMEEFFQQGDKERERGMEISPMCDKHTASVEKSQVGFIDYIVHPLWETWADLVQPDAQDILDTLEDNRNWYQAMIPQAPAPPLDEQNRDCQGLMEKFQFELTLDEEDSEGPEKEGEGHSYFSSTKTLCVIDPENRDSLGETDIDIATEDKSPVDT

Compound | IC50
Cc1ccc(-n2c(C(=O)N3CCC3)nc3cccnc32)cc1F [Example 18, Azetidin-1-yl[3-(3-fluoro-4-methylphenyl)-3H-imidazo[4,5-b]pyridin-2-yl]methanone] | 48.7 nM
O=C(NC1CC1)c1nc2cccnc2n1-c1ccc2ncsc2c1 [Example 71, 3-(1,3-Benzothiazol-6-yl)-N-cyclopropyl-3H-imidazo[4,5-b]pyridine-2-carboxamide] | 155 nM
COc1ccc(-n2c(C(=O)NC3CC3)nc3cccnc32)cc1OC [Example 87, N-Cyclopropyl-3-(3,4-dimethoxyphenyl)-3H-imidazo[4,5-b]pyridine-2-carboxamide] | 2720 nM
Cc1cc(F)ccc1-n1c(C(=O)NC2CC2)nc2cccnc21 [Example 60, N-Cyclopropyl-3-(4-fluoro-2-methylphenyl)-3H-imidazo[4,5-b]pyridine-2-carboxamide] | 1200 nM
O=C(NC1CC1)c1nc2cccnc2n1-c1cc(F)ccc1Cl [Example 90, 3-(2-Chloro-5-fluorophenyl)-N-cyclopropyl-3H-imidazo[4,5-b]pyridine-2-carboxamide] | 9230 nM
N#Cc1ccc(-n2c(C(=O)NC3CC3)nc3cccnc32)cc1 [Example 42, 3-(4-Cyanophenyl)-N-cyclopropyl-3H-imidazo[4,5-b]pyridine-2-carboxamide] | 276 nM
Cc1ccc(-n2c(C(=O)N3CC(F)C3)nc3cccnc32)cc1F [Example 19, (3-Fluoroazetidin-1-yl)[3-(3-fluoro-4-methylphenyl)-3H-imidazo[4,5-b]pyridin-2-yl]methanone] | 281 nM
O=C(NC1CC1)c1nc2cccnc2n1-c1ccc2c(c1)CCC2 [Example 64, N-Cyclopropyl-3-(2,3-dihydro-1H-inden-5-yl)-3H-imidazo[4,5-b]pyridine-2-carboxamide] | 206 nM
Cc1ccc(-n2c(C(=O)NC3CC3)nc3cccnc32)c(F)c1 [Example 67, N-Cyclopropyl-3-(2-fluoro-4-methylphenyl)-3H-imidazo[4,5-b]pyridine-2-carboxamide] | 619 nM
COc1ccc(-n2c(C(=O)NC3CC3)nc3cccnc32)c(C)c1 [Example 89, N-Cyclopropyl-3-(4-methoxy-2-methylphenyl)-3H-imidazo[4,5-b]pyridine-2-carboxamide] | 3520 nM
O=C(NC1CC1)c1nc2cccnc2n1-c1cccc(F)c1 [Example 65, N-Cyclopropyl-3-(3-fluorophenyl)-3H-imidazo[4,5-b]pyridine-2-carboxamide] | 188 nM
O=C(NC1CC1)c1nc2cccnc2n1-c1ccccc1 [Example 57, N-Cyclopropyl-3-phenyl-3H-imidazo[4,5-b]pyridine-2-carboxamide] | 1160 nM
O=C(NC1CC1)c1nc2cccnc2n1-c1cccc(Cl)c1F [Example 78, 3-(3-Chloro-2-fluorophenyl)-N-cyclopropyl-3H-imidazo[4,5-b]pyridine-2-carboxamide, trifluoroacetate salt] | 387 nM
CCCNC(=O)c1nc2cccnc2n1-c1ccc(Cl)cc1 [Example 13, 3-(4-Chlorophenyl)-N-propyl-3H-imidazo[4,5-b]pyridine-2-carboxamide] | 944 nM
O=C(c1nc2cccnc2n1-c1cncc(Cl)c1)N1CCC1 [Example 38, Azetidin-1-yl[3-(5-chloropyridin-3-yl)-3H-imidazo[4,5-b]pyridin-2-yl]methanone] | 466 nM
COc1ccc(-n2c(C(=O)NC3CC3)nc3cccnc32)cc1 [Example 58, N-Cyclopropyl-3-(4-methoxyphenyl)-3H-imidazo[4,5-b]pyridine-2-carboxamide] | 506 nM
Cc1nc2ccc(-n3c(C(=O)NC4CC4)nc4cccnc43)cc2s1 [Example 73, N-Cyclopropyl-3-(2-methyl-1,3-benzothiazol-6-yl)-3H-imidazo[4,5-b]pyridine-2-carboxamide] | 516 nM
COc1cc(-n2c(C(=O)NC3CC3)nc3cccnc32)ccc1C [Example 50, N-Cyclopropyl-3-(3-methoxy-4-methylphenyl)-3H-imidazo[4,5-b]pyridine-2-carboxamide] | 339 nM

Source: patent publication US9815832B2 (priority 2013, dated 2017)
